Reference: patent US9023876B2, “Compounds and methods for regulating integrins” (Adhaere Pharmaceuticals, Inc., priority 2010, dated 2015)

What was measured:
[1] = system: murine neutrophils; experiment: Neutrophil chemotaxis assay in Zigmond chamber, fMLP gradient; format: cell-based, mouse; settings: vs DMSO
Method: Neutrophil chemotaxis on 2D surfaces was performed using Zigmond chamber (Neuro Probe) as described on acid cleaned glass or Fg coated glass coverslips. Cell migration was allowed in a gradient of […] bacterial peptide formyl-methionyl-leucyl-phenylalanine (fMLP, Sigma), in the absence or presence of leukadherins ([…]). Cell migration was recorded at every 30 sec interval for a period of 25 min using a Nikon Eclipse 90i inverted microscope. Images were acquired with a Nikon DS camera using a PLAN APO 20X differential interference contrast (DIC) microscopy objective and captured into Nikon Imaging software. Analysis of neutrophil migration was performed with the motile population that had moved more than 10 μm using ImageJ software (NIH, USA) with manual cell tracking using the Ibidi chemotaxis and migration tool plugin for ImageJ. Migration velocity and the total displacement (distance from origin) were also analyzed. Quantitation was performed using at least 50 independent cells per condition from at least three independent experiments.
Leukocyte chemotaxis on 2D surfaces involves integrin-mediated sequential adhesion and de-adhesion steps [77]. […] To test if increased cell-adhesion by leukaderins affects cell migration, we used murine neutrophils chemotaxing in response to a gradient of chemokine peptide formyl-Met-Leu-Phe (fMLP). […]

[2] = system: WT B6 mice; experiment: Thioglycollate-induced peritonitis, WT mice; format: in vivo, mouse; settings: vs vehicle
Method: Thioglycollate-induced peritonitis was performed as previously described, using 8-10 week old WT B6 and CD11b^−/− B6 mice. Leukadherin agonists were administered thirty min prior to intra peritoneal (i.p.) thioglycollate (3%) injection. LA1 and LA2 ([…] of 20 mM solution in saline) were administered intra venously (i.v.). LA3 was administered i.p. (1 mL of 20 mM solution in saline). To evaluate peritoneal neutrophil recruitment, […], the peritoneal lavage was collected and the number of emigrated neutrophils was quantified using double positive cells for GR-1 and Mac-1 staining as described.
To determine the effects of LA1-3 on inflammatory responses in vivo, we monitored their effects on neutrophil recruitment upon acute thioglycollate-induced peritonitis in mice.

[3] = system: Tg(mpx::eGFP) zebrafish larvae; experiment: Zebrafish tailfin injury assay; format: in vivo; settings: 4 h post injury; vehicle 34.6±4.5
Method: Transgenic Tg(mpx::eGFP) were maintained according to standard protocols. Tailfin injury in three days post fertilization (dpf) larvae was performed as described. Larvae were anesthetized by immersion in E3 with […] tricane, and tail was completely transected with a sterile microdissection scalpel in accordance with the approved protocols and were recovered for the indicated time points. Zebrafish larvae (3 dpf) were treated with compounds as described (Ref). Briefly, small molecule compounds were administered by immersing the larvae in a solution of the compounds in E3. The final concentration of DMSO was kept at <1%. For the assessment of the inflammatory response, injured larvae were analyzed at 4 h post-injury. For the post-wash assay, uninjured larvae incubated with the compounds in E3 for 4-8 h, washed into E3 and injured. Larvae were analyzed using a Leica DMI6000B microscope and an Hamamatsu Orca-3CCD camera using Volocity. Excitation was performed using the laser at 488 nm and the images were analyzed using Volocity. The number of fluorescent neutrophils at the site of inflammation were counted by eye in a blinded fashion. […]

[4] = system: B6 male mice; experiment: Renal I/R injury in mice; format: in vivo, mouse; settings: given 30 min prior to I/R injury, 24 h post-ischemia, vs DMSO; not shown
Method: Leukadherins reduce renal I/R injury. To evaluate use of leukadherins in the I/R injury induced changes in the kidney function of WT mice, we performed another experiment. B6 male mice (8-12 weeks of age) were anesthetized and kept on a heating pad to keep them at a constant 37° C. temperature. Next, an abdominal incision was made and the renal pedicles were occluded bilaterally with a nontraumatic vascular clamp for 30 minutes, the clamp then removed and the surgical incision was closed. Sham surgery was performed with an identical procedure but without application of the clamps. Renal I/R injury was assessed at 24 h post-ischemia by measuring the serum creatinine levels. Mouse sera from the tail incision was used for the analyses of sCr (and BUN levels (not shown)) using manual kits (Stanbio Laboratory).

O=C(O)c1ccc(-c2ccc(/C=C3\SC(=S)N(Cc4ccccc4)C3=O)o2)cc1 [LA1] was tested, and the “lateral migration of neutrophils” value [1] was “significant decrease”, the “migration velocity of neutrophils” value [1] was “significant decrease” and the “peritoneal neutrophil accumulation at 4 h and 12 h” value ([2]; TGC-induced peritonitis) was “significantly reduced”. For the same molecule, the “peritoneal neutrophils after 24 h” value ([2]; TGC-induced peritonitis) was “comparable numbers”, the “reduction of peritoneal neutrophil accumulation” value ([2]; WT mice, given 30 min prior to thioglycollate, 4 h) was 40% and the “neutrophil accumulation in the zebrafish tailfin (number of neutrophils)” value [3] was 15.6±1.7. The “serum creatinine (sCr) levels” value [4] was “significant reduction”.
